Here are results for 14 compounds from PubChem BioAssay (NCI).

Some test systems named below: NCI-H522 lung; HOP-92 NSCLC; NCI/ADR-RES ovarian; NCI-H23 lung; M14 melanoma; HCC-2998 colon; UACC-257 melanoma; NCI-H226 lung; BT-549 breast; K-562 leukemia; PC-3 prostate; SNB-75 CNS.
Experiment in all cases: NCI tumour cell line growth inhibition, 48 h

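The compound was tested at five concentrations on cells cultured in 96-well plates, with a 48-hour exposure period. Definition used: TGI = concentration required for complete inhibition of growth.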

For `CCN(CC)C(=S)SS(=O)(=O)c1ccc(Cl)cc1`, the TGI in the assay with NCI-H522 lung was 0.0995 µM; in the assay with HOP-92 NSCLC it was 50.4 µM; with NCI/ADR-RES ovarian, greater than 100 µM; in the assay with NCI-H23 lung, greater than 100 µM; in the assay with M14 melanoma, 31 µM; in the assay with HCC-2998 colon, greater than 100 µM. Besides, the TGI in the assay with UACC-257 melanoma was 58.8 µM; in the assay with NCI-H226 lung, greater than 100 µM; in the assay with BT-549 breast, greater than 100 µM; in the assay with K-562 leukemia, 63.3 µM.
For the compound `CC1(C)CC(=O)C2=C(C1)NC1=C(C(=O)CC(C)(C)C1)C2c1ccc([N+](=O)[O-])cc1`, the TGI in the assay on NCI-H522 lung is greater than 100 µM; with PC-3 prostate it was greater than 100 µM; with HOP-92 NSCLC, greater than 100 µM; in the assay with SNB-75 CNS it was 69.6 µM; in the assay on NCI-H23 lung, greater than 100 µM; in the assay with M14 melanoma it was greater than 100 µM. For the same compound, the TGI in the assay with HCC-2998 colon, with UACC-257 melanoma, in the assay with NCI-H226 lung, with BT-549 breast and with K-562 leukemia was greater than 100 µM throughout.
As for `COc1ccc(C2Oc3cc(OC)c(O)c(C)c3[C@H]2C)cc1` (stereo partly drawn), the TGI with NCI-H522 lung is greater than 100 µM; in the assay on HOP-92 NSCLC, greater than 100 µM; in the assay with SNB-75 CNS, 69.5 µM; in the assay with NCI-H23 lung, greater than 100 µM; in the assay with M14 melanoma, greater than 100 µM; with HCC-2998 colon it was greater than 100 µM. For the same compound, the TGI in the assay with UACC-257 melanoma, with NCI-H226 lung and with K-562 leukemia was greater than 100 µM each time.
Consider `c1ccc(C2=NOC3(c4ccccc4)SC4CCCCC4CN23)cc1` (stereo not drawn), for which the TGI in the assay with NCI-H522 lung is 22.6 µM; in the assay with HOP-92 NSCLC it was 59.4 µM; in the assay with SNB-75 CNS, 84.8 µM; in the assay on NCI-H23 lung it was greater than 100 µM; in the assay on M14 melanoma, 49.3 µM; with HCC-2998 colon, greater than 100 µM. Also, the TGI in the assay with UACC-257 melanoma, with NCI-H226 lung and in the assay on K-562 leukemia was greater than 100 µM each time.
`CC(=O)c1ccc2c(ccc(=O)n2C)c1`: the TGI in the assay with NCI-H522 lung, in the assay with HOP-92 NSCLC, in the assay with SNB-75 CNS, in the assay on NCI-H23 lung, in the assay on M14 melanoma and with HCC-2998 colon was greater than 100 µM each time. Moreover, the TGI in the assay with NCI-H226 lung and in the assay on K-562 leukemia was greater than 100 µM each time.
Turning to `C=C1C(=O)OC2/C=C(/C)C3CC(O)C(C)(CC(OC(=O)/C(C)=C/C)C12)O3` (stereo not drawn), the TGI in the assay with NCI-H522 lung stood at 6.12 µM; in the assay with HOP-92 NSCLC, 8.68 µM; in the assay on SNB-75 CNS, 28.2 µM; in the assay on NCI-H23 lung, 16.9 µM; in the assay on M14 melanoma it was 9.08 µM; in the assay with HCC-2998 colon, 28.4 µM. Also, the TGI with UACC-257 melanoma is 17.6 µM; with NCI-H226 lung it was 35.3 µM; with K-562 leukemia it was greater than 28.8 µM.
For `C/C1=C/C(C)CC(C)OC(=O)C(C)NC(=O)C(Cc2ccc(O)c(I)c2)N(C)C(=O)C(C)NC(=O)C(C)C1` (stereo not drawn), the TGI in the assay on NCI-H522 lung is 0.649 µM; in the assay on HOP-92 NSCLC it was 0.0259 µM; in the assay with NCI/ADR-RES ovarian it was 24.4 µM; in the assay with SNB-75 CNS, less than 0.01 µM; in the assay on NCI-H23 lung, 44.4 µM; with M14 melanoma, 48.8 µM. Further, the TGI was 5.2 µM in the assay on HCC-2998 colon, 8.36 µM in the assay with UACC-257 melanoma, 0.737 µM in the assay on BT-549 breast and greater than 40.8 µM in the assay with K-562 leukemia.
On to `CCOC(=O)c1nc2ccccc2nc1Nc1ccc(OC)c(OC)c1`, for which the TGI in the assay on NCI-H522 lung was greater than 100 µM; in the assay on HOP-92 NSCLC, greater than 100 µM; in the assay on NCI/ADR-RES ovarian, greater than 100 µM; with SNB-75 CNS, 77 µM; with NCI-H23 lung, greater than 100 µM; in the assay with M14 melanoma it was greater than 100 µM. Further, the TGI in the assay with HCC-2998 colon, with BT-549 breast and in the assay on K-562 leukemia was greater than 100 µM throughout.
Consider `COC(C(=O)C(O)C(C)O)C1CC2C=C3C=C(OC4CC(OC5CC(O)C(OC)C(C)O5)C(OC(C)=O)C(C)O4)C(C)C(=O)C3=C(O)C2=C(O)C1OC1CC(OC2CC(OC3CC(C)(O)C(OC(=O)C(C)C)C(C)O3)C(O)C(C)O2)C(O)C(C)O1` (stereo not drawn), for which the TGI is less than 0.01 µM in the assay with NCI-H522 lung; 0.425 µM in the assay on NCI/ADR-RES ovarian; less than 0.01 µM in the assay with SNB-75 CNS; less than 0.01 µM in the assay on NCI-H23 lung; less than 0.01 µM with M14 melanoma; less than 0.01 µM in the assay on HCC-2998 colon. Moreover, the TGI with UACC-257 melanoma, with NCI-H226 lung and with K-562 leukemia was less than 0.01 µM in each case.
For `NC(=O)NC(=O)c1cccc(CNc2ccc(C(=O)N[C@@H](CCC(=O)O)C(=O)O)cc2)n1`, the TGI with NCI-H522 lung, in the assay on PC-3 prostate, with HOP-92 NSCLC, in the assay on NCI/ADR-RES ovarian, in the assay with NCI-H23 lung and with M14 melanoma was greater than 100 µM in each case. The TGI in the assay on HCC-2998 colon, in the assay with UACC-257 melanoma, in the assay on NCI-H226 lung, in the assay with BT-549 breast and in the assay on K-562 leukemia was greater than 100 µM in each case.
On to `CC(C)(C)NC(=O)NC12CC3CC(CC(F)(C3)C1)C2`, for which the TGI in the assay with NCI-H522 lung, with HOP-92 NSCLC, in the assay on SNB-75 CNS, with NCI-H23 lung, in the assay on M14 melanoma and in the assay with HCC-2998 colon was greater than 100 µM throughout. For the same compound, the TGI in the assay with UACC-257 melanoma and in the assay with K-562 leukemia was greater than 100 µM each time.
As to `Clc1ccccc1C1=NN(c2ccccc2)C2c3ccccc3OCC12` (stereo not drawn), the TGI in the assay on NCI-H522 lung, in the assay with HOP-92 NSCLC, with SNB-75 CNS, with NCI-H23 lung, with HCC-2998 colon and in the assay on UACC-257 melanoma was greater than 100 µM each time. Also, the TGI with K-562 leukemia is greater than 100 µM.
On to `Cc1ccc(S(=O)(=O)N2C[C@](O)(c3ccccc3)[C@H]2C)cc1`, for which the TGI in the assay on NCI-H522 lung, with PC-3 prostate, with HOP-92 NSCLC, in the assay with NCI/ADR-RES ovarian, in the assay with SNB-75 CNS and with NCI-H23 lung was greater than 100 µM each time. The TGI in the assay on M14 melanoma, in the assay with UACC-257 melanoma and in the assay with NCI-H226 lung was greater than 100 µM throughout.
As for `CCN1C[C@]2(C)CC[C@H](OC)C34C1C([C@H](OC(C)=O)[C@@H]32)[C@@]1(OC)C[C@H](OC)[C@H]2C[C@@H]4[C@@H]1[C@H]2O`, the TGI in the assay with NCI-H522 lung, with HOP-92 NSCLC, in the assay with SNB-75 CNS, with NCI-H23 lung, in the assay on M14 melanoma and with HCC-2998 colon was greater than 100 µM in each case. Also, the TGI with UACC-257 melanoma, with NCI-H226 lung and with K-562 leukemia was greater than 100 µM in each case.
